The record followed here is US20170232013A1, “COMPOSITIONS AND METHODS FOR THE TREATMENT OF MUSCULOSKELETAL RELATED DISEASES AND DISORDERS USING METAL ION-CITRATE ANALOG COMPLEXES” (The Charlotte-Mecklenburg Hospital Authority d/b/a …, priority 2011, published 2017).

The test system of assay [1] is Hartley guinea pigs. Briefly: Subchondral bone mineral density by X-ray densitometry. In kind it is in vivo. As to the method: The bone mineral density of subchondral bone of these same Hartley guinea pigs was evaluated using a X-ray densitometry.
The test system of assay [2] is Hartley guinea pigs. Briefly: Skyscan Micro-CT of distal femurs of Hartley guinea pigs. In kind it is in vivo. As to the method: The distal femurs of the Hartley guinea pigs were also analyzed with Skyscan Micro-CT. The femur of untreated Hartley guinea pigs had less bone volume and larger marrow space than the femur of CaPC-treated Hartley guinea pigs. Micro-CT scan of the femur of Hartley guinea pigs. […] The area showing less trabecular bone and larger marrow space is indicated by a red arrow. In the right image of FIG. 3, the femur of a CaPC-treated Hartley guinea pig is shown.
Femurs, previously stored in 70% ethanol, were cut close to the distal femur condyle. The specimens were left to dry 48-hr before being scanned using Skyscan Micro-CT. A 3-D model was built in the ANT model building program and bisected with a plane down the lateral/midline. Using the model building program, a separate dataset was built forming 30 cross sections on either side of the plane. With this dataset, measurements were taken with the 3D-Calc program. A rectangular region of interest was applied to all 60 sections. The region of interest was placed approximately 0.5 cm down from the growth plate in the central part of the trabeculae and extended downward.

For assay [3], the system named is meniscus derived from osteoarthritis patients. Briefly: Microarray gene expression in cultured minced meniscus. In kind it is cell-based, human. Particulars: 7 day treatment, Skeletal Development gene. From the text: In this example, meniscus derived from osteoarthritis patients were minced into small pieces and cultured in the absence or presence of magnesium phosphcitrate (MgPC). After 7 day treatment, RNA was extracted and gene expression was investigated using microarray.

Assay [4] deals with Hartley guinea pigs. Briefly: High definition X-ray of front limbs of Hartley guinea pigs after eight months of CaPC. In kind it is in vivo. Particulars: 30 mg/kg intraperitoneal twice per week. As to the method:
In this example, three month old Hartley guinea pigs were administered 30 mg/kg calcium phosphorcitrate (CaPC) or saline via intraperitoneal injection twice per week. Eight months later, the guinea pigs were sacrificed and examined with high definition X-ray. […] The bone mineral content of the front limb of a CaPC-treated Hartley guinea pig (left photo, the green arrow) was higher than the bone mineral content of a front limb of an untreated Hartley guinea pig (left photo, the green arrow). […] The diameter of the front limb was lager and the bone mineral content was higher in CaPC-treated Hartley guinea pigs that that in untreated Hartley guinea pigs.

For the substance calcium phosphorcitrate [CaPC], in the assay with Hartley guinea pigs [1] (Pair one, untreated 0.143), the “Subchondral bone mineral density” value amounted to 0.157 g/cm^2. For the same substance, the “Subchondral bone mineral density” value in the assay on Hartley guinea pigs [1] (Pair three, untreated 0.150) is 0.181 g/cm^2. In addition, the “Subchondral bone mineral density” value with Hartley guinea pigs [1] (Pair two, untreated 0.146) is given as 0.161 g/cm^2. Moreover, the “trabecular bone and marrow space of femur (Micro-CT image)” value in the assay on Hartley guinea pigs [2] (30 mg/kg intraperitoneal twice per week, eight months, vs untreated) is “more trabecular bone and less marrow space”. In addition, the “Bone Volume” value with Hartley guinea pigs [2] (distal femur, region of interest over 60 sections, untreated 0.19 + 0.04) is listed as 0.49 + 0.09. The “Trabecular Number” value with Hartley guinea pigs [2] (distal femur, region of interest over 60 sections, untreated 0.43 + 0.08) is listed as 1.07 + 0.15. In addition, the “Tissue Volume” value in the assay on Hartley guinea pigs [2] (distal femur, region of interest over 60 sections, untreated 10.76 + 1.9) was 10.76 + 1.9. In addition, in the assay with Hartley guinea pigs [2] (distal femur, region of interest over 60 sections, untreated 32.90 + 3.6), the “Trabecular Thickness” value is given as 42.00 + 4.9. Moreover, in assay [3], the “Differential Expression ACAN” value is “significantly induced”, the “Differential Expression COL2A1” value was “significantly induced” and the “Differential Expression COL11A1” value is “significantly induced”. Besides, the formation of bone entry with Hartley guinea pigs [4] (vs saline) is reported as “promoted the formation of bone”. In the assay with Hartley guinea pigs [4] (vs untreated), the “bone mineral content of the front limb” value was “higher” and the “diameter of the front limb” value was “larger”.

With magnesium phosphcitrate [MgPC], in assay [3], the “Differential Expression ACAN” value was 2.0, the “Differential Expression COL2A1” value amounted to 2.0 and the “Differential Expression COL11A1” value turned out to be 2.7.
